{"source": "patent US20070190036A1", "about": "“Microencapsulation of pancreatic islets within a thin coat of glucagon-like peptide-1 functionalized poly(ethylene glycol)” (priority 2006, published 2007)", "origin": "cited, not measured here", "system": "rat pancreatic islets", "conditions": "isolated rat pancreatic islets"}
{"substance": "glucagon-like peptide 1 [GLP-1]", "values": [{"measurement": "concentration at which insulinotropic activity began", "result": 2.5, "unit": "nM"}, {"measurement": "concentration at which insulinotropic activity was saturated", "result": 250, "unit": "nM"}]}
